# System: Klebsiella pneumoniae
# Test: Antibacterial activity against porin deficient OmpA positive Klebsiella pneumoniae KPBj1 revertant by disk agar diffusion method
# Format: functional
# Conditions: not given
row,Structure (SMILES),MIC [mg/L]
1,C[C@H]1COc2c(N3CCN(C)CC3)c(F)cc3c(=O)c(C(=O)O)cn1c23.C[C@H]1COc2c(N3CCN(C)CC3)c(F)cc3c(=O)c(C(=O)O)cn1c23.O [LEVOFLOXACIN],0.06
2,O=C(N[C@H](CO)[C@H](O)c1ccc([N+](=O)[O-])cc1)C(Cl)Cl [CHLORAMPHENICOL],4

# System: Klebsiella pneumoniae
# Test: Antibacterial activity against porin deficient OmpA positive Klebsiella pneumoniae KPBj3 revertant by disk agar diffusion method
# Format: functional
# Conditions: not given
row,Structure (SMILES),MIC [mg/L]
1,C[C@H]1COc2c(N3CCN(C)CC3)c(F)cc3c(=O)c(C(=O)O)cn1c23.C[C@H]1COc2c(N3CCN(C)CC3)c(F)cc3c(=O)c(C(=O)O)cn1c23.O [LEVOFLOXACIN],0.015
2,O=C(N[C@H](CO)[C@H](O)c1ccc([N+](=O)[O-])cc1)C(Cl)Cl [CHLORAMPHENICOL],4

# System: Klebsiella pneumoniae
# Test: Antibacterial activity against porin deficient OmpA positive Klebsiella pneumoniae KPBj1 expressing efflux system by disk agar diffusion method
# Format: functional
# Conditions: not given
row,Structure (SMILES),MIC [mg/L]
1,O=C(N[C@H](CO)[C@H](O)c1ccc([N+](=O)[O-])cc1)C(Cl)Cl [CHLORAMPHENICOL],128

# System: Klebsiella pneumoniae
# Test: microbe, parasite or virus in culture
# Conditions: KPBj1
# Description: Antibacterial activity against porin deficient OmpA positive extended-spectrum beta-lactamase producing Klebsiella pneumoniae KPBj1 expressing efflux system by disk agar diffusion method
row,Structure (SMILES),MIC [mg/L]
1,O=C(N[C@H](CO)[C@H](O)c1ccc([N+](=O)[O-])cc1)C(Cl)Cl [CHLORAMPHENICOL],128

# System: Klebsiella pneumoniae
# Test: Antibacterial activity against porin, OmpA positive extended-spectrum beta-lactamase producing Klebsiella pneumoniae KPBj1 revertant by disk agar diffusion method
# Format: functional
# Conditions: not given
row,Structure (SMILES),MIC [mg/L]
1,C[C@H]1COc2c(N3CCN(C)CC3)c(F)cc3c(=O)c(C(=O)O)cn1c23.C[C@H]1COc2c(N3CCN(C)CC3)c(F)cc3c(=O)c(C(=O)O)cn1c23.O [LEVOFLOXACIN],0.03
2,O=C(N[C@H](CO)[C@H](O)c1ccc([N+](=O)[O-])cc1)C(Cl)Cl [CHLORAMPHENICOL],2

# System: Klebsiella pneumoniae
# Test: Antibacterial activity against porin, OmpA positive extended-spectrum beta-lactamase producing Klebsiella pneumoniae KPBj1 by disk agar diffusion method
# Format: functional
# Conditions: not given
row,Structure (SMILES),MIC [mg/L]
1,O=C(N[C@H](CO)[C@H](O)c1ccc([N+](=O)[O-])cc1)C(Cl)Cl [CHLORAMPHENICOL],128

# System: Klebsiella pneumoniae
# Test: Antibacterial activity against porin, OmpA positive Klebsiella pneumoniae KPBj3 revertant by disk agar diffusion method
# Format: functional
# Conditions: not given
row,Structure (SMILES),MIC [mg/L]
1,C[C@H]1COc2c(N3CCN(C)CC3)c(F)cc3c(=O)c(C(=O)O)cn1c23.C[C@H]1COc2c(N3CCN(C)CC3)c(F)cc3c(=O)c(C(=O)O)cn1c23.O [LEVOFLOXACIN],0.03
2,O=C(N[C@H](CO)[C@H](O)c1ccc([N+](=O)[O-])cc1)C(Cl)Cl [CHLORAMPHENICOL],4

# System: Klebsiella pneumoniae
# Test: Antibacterial activity against porin deficient OmpA positive extended-spectrum beta-lactamase producing Klebsiella pneumoniae KPBj1 revertant by disk agar diffusion method
# Format: functional
# Conditions: not given
row,Structure (SMILES),MIC [mg/L]
1,C[C@H]1COc2c(N3CCN(C)CC3)c(F)cc3c(=O)c(C(=O)O)cn1c23.C[C@H]1COc2c(N3CCN(C)CC3)c(F)cc3c(=O)c(C(=O)O)cn1c23.O [LEVOFLOXACIN],0.06
2,O=C(N[C@H](CO)[C@H](O)c1ccc([N+](=O)[O-])cc1)C(Cl)Cl [CHLORAMPHENICOL],4

# System: Klebsiella pneumoniae
# Test: Antibacterial activity against porin, OmpA positive Klebsiella pneumoniae KPBj3 expressing efflux system by disk agar diffusion method
# Format: functional
# Conditions: not given
row,Structure (SMILES),MIC [mg/L]
1,O=C(N[C@H](CO)[C@H](O)c1ccc([N+](=O)[O-])cc1)C(Cl)Cl [CHLORAMPHENICOL],128

# System: Klebsiella pneumoniae
# Test: Antibacterial activity against porin deficient OmpA positive Klebsiella pneumoniae KPBj5 expressing efflux system by disk agar diffusion method
# Format: functional
# Conditions: not given
row,Structure (SMILES),MIC [mg/L]
1,O=C(N[C@H](CO)[C@H](O)c1ccc([N+](=O)[O-])cc1)C(Cl)Cl [CHLORAMPHENICOL],8

# System: Klebsiella pneumoniae
# Test: Antibacterial activity against porin, OmpA positive Klebsiella pneumoniae KPBj1 expressing efflux system by disk agar diffusion method
# Format: functional
# Conditions: not given
row,Structure (SMILES),MIC [mg/L]
1,O=C(N[C@H](CO)[C@H](O)c1ccc([N+](=O)[O-])cc1)C(Cl)Cl [CHLORAMPHENICOL],128

# System: Klebsiella pneumoniae
# Test: Antibacterial activity against porin, OmpA positive Klebsiella pneumoniae KPBj5 expressing efflux system by disk agar diffusion method
# Format: functional
# Conditions: not given
row,Structure (SMILES),MIC [mg/L]
1,O=C(N[C@H](CO)[C@H](O)c1ccc([N+](=O)[O-])cc1)C(Cl)Cl [CHLORAMPHENICOL],8

# System: Klebsiella pneumoniae
# Test: Antibacterial activity against porin, OmpA positive Klebsiella pneumoniae KPBj5 revertant by disk agar diffusion method
# Format: functional
# Conditions: not given
row,Structure (SMILES),MIC [mg/L]
1,C[C@H]1COc2c(N3CCN(C)CC3)c(F)cc3c(=O)c(C(=O)O)cn1c23.C[C@H]1COc2c(N3CCN(C)CC3)c(F)cc3c(=O)c(C(=O)O)cn1c23.O [LEVOFLOXACIN],0.06
2,O=C(N[C@H](CO)[C@H](O)c1ccc([N+](=O)[O-])cc1)C(Cl)Cl [CHLORAMPHENICOL],2

# System: Klebsiella pneumoniae
# Test: Antibacterial activity against porin deficient OmpA positive Klebsiella pneumoniae KPBj5 revertant by disk agar diffusion method
# Format: functional
# Conditions: not given
row,Structure (SMILES),MIC [mg/L]
1,C[C@H]1COc2c(N3CCN(C)CC3)c(F)cc3c(=O)c(C(=O)O)cn1c23.C[C@H]1COc2c(N3CCN(C)CC3)c(F)cc3c(=O)c(C(=O)O)cn1c23.O [LEVOFLOXACIN],0.06
2,O=C(N[C@H](CO)[C@H](O)c1ccc([N+](=O)[O-])cc1)C(Cl)Cl [CHLORAMPHENICOL],2

# System: Klebsiella pneumoniae
# Test: Antibacterial activity against porin, OmpA positive Klebsiella pneumoniae KPBj1 revertant by disk agar diffusion method
# Format: functional
# Conditions: not given
row,Structure (SMILES),MIC [mg/L]
1,C[C@H]1COc2c(N3CCN(C)CC3)c(F)cc3c(=O)c(C(=O)O)cn1c23.C[C@H]1COc2c(N3CCN(C)CC3)c(F)cc3c(=O)c(C(=O)O)cn1c23.O [LEVOFLOXACIN],0.03
2,O=C(N[C@H](CO)[C@H](O)c1ccc([N+](=O)[O-])cc1)C(Cl)Cl [CHLORAMPHENICOL],2

# System: Klebsiella pneumoniae
# Test: Antibacterial activity against porin deficient OmpA positive Klebsiella pneumoniae KPBj3 expressing efflux system by disk agar diffusion method
# Format: functional
# Conditions: not given
row,Structure (SMILES),MIC [mg/L]
1,O=C(N[C@H](CO)[C@H](O)c1ccc([N+](=O)[O-])cc1)C(Cl)Cl [CHLORAMPHENICOL],128

# System: Klebsiella pneumoniae
# Test: Antibacterial activity against porin, OmpA positive Klebsiella pneumoniae ATCC 138821 by disk agar diffusion method
# Format: functional
# Conditions: not given
row,Structure (SMILES),MIC [mg/L]
1,C[C@H]1COc2c(N3CCN(C)CC3)c(F)cc3c(=O)c(C(=O)O)cn1c23.C[C@H]1COc2c(N3CCN(C)CC3)c(F)cc3c(=O)c(C(=O)O)cn1c23.O [LEVOFLOXACIN],0.03
2,O=C(N[C@H](CO)[C@H](O)c1ccc([N+](=O)[O-])cc1)C(Cl)Cl [CHLORAMPHENICOL],2
